Reference: US7723301B2, “Pharmaceutical compositions comprising an anti-teratogenic compound and applications of the same” (The Board of Trustees of the University of Arkansas, priority 2007, dated 2010)
Entries after “also recorded” stand apart in the source; their conditions may differ.

B1: Noggin: recombinant Noggin, an inhibitor of Bmp signaling (protein, UniProt P97466 28-232, looked up)
Noggin: QHYLHIRPAPSDNLPLVDLIEHPDPIFDPKEKDLNETLLRSLLGGHYDPGFMATSPPEDRPGGGGGPAGGAEDLAELDQLLRQRPSGAMPSEIKGLEFSEGLAQGKKQRLSKKLRRKLQMWLWSQTFCPVLYAWNDLGSRFWPRYVKVGSCFSKRSCSVPEGMVCKPSKSVHLTVLRWRCQRRGGQRCGWIPIQYPIISECKCSC

Assays:
[1] = system: primary limb bud cells (PLBCs); experiment: Cell death by trypan blue staining in PLBCs; assay type: cell-based, chicken; conditions: for effect on juglone-induced cell death in PLBCs: pre-treatment for one hour, juglone 5 μM two hours; for effect on BMP4-induced PCD in PLBCs: rh BMP4 300 ng/ml; for effect on thalidomide-induced cell death in PLBCs: thalidomide 10 μg/ml, six hours
Protocol: (§1) Primary limb bud cells (PLBCs) were isolated from 60 pooled wing and hindlimb buds of HH stages 23/24 embryos. Fibroblasts were gained from HH stage 34 chicken embryos or from 13.5 d.p.c. mouse embryos. Human embryonic fibroblasts were provided by Matthias Maass (2). Before adding reagents, all cell types were cultured for 16 hours in D-MEM (Gibco) plus 10% fetal calf serum (FCS) and 2% chicken serum. Treatment with thalidomide, phthalimide, recombinant human (rh) BMP4 (300 ng/ml; R&D Systems), juglone (5 μM; Sigma), recombinant mouse Noggin (30, 300, 1000 ng/ml in FIG. 4B; 300 ng/ml in FIGS. 4C and 6A), anti-human-DKK1 antibody (35, 350 and 1000 ng/ml in FIG. 4B; 350 ng/ml in FIGS. 4C and 6A), LiCl (3, 30, 60 mM in FIG. 4B; 30 mM in FIGS. 4C, 6A and 6C) and/or (2Z,3E)-6-Bromoindirubin-3-oxime (BIO, Gsk3-Inhibitor IX; 50, 500, 1000 nM in FIG. 4B; 500 nM in FIG. 6A; 50 and 500 nM in FIG. 6C; Calbiochem) were performed in Optimem1 (Invitrogen) plus 1% FCS. Unless otherwise noted, all treatments with thalidomide and rh-BMP4 and associated controls were done for six hours. Inhibitors were applied once at the beginning of incubation with the exception of LiCl that was added 150 minutes before harvesting the cells for further analyses. Pre-treatment with phenyl-N-t-butylnitrone (PBN; 2 mM; Sigma) was performed for one hour. Incubations with juglone were performed for two hours, if applicable, after a pre-treatment with PBN, Noggin, anti-Dkk1 antibody, LiCl or Gsk3-Inhibitor IX for one hour.
(§2) Cell death in PLBCs, CEFs, MEFs and HEFs was detected by staining with trypan blue (0.1% (w/v) in PBS; Sigma) for 90 seconds. Cells were counted in a counting chamber to determine the ratio of dead to live cells.

[2] = system: human embryonic fibroblasts (HEFs); experiment: Cell death by trypan blue staining in HEFs; assay type: cell-based; conditions: for effect on thalidomide-induced cell death in HEFs: Noggin 300 ng/ml, anti-DKK1 antibody 350 ng/ml, LiCl 30 mM
Protocol: as §1, §2

[3] = system: limb buds of HH stages 23/24 chicken embryos; experiment: Whole mount TUNEL staining of limb buds; assay type: in vivo; conditions: LiCl 0.6 mg per embryo at HH stages 17-19, 19 of 80
Protocol: TUNEL staining was performed as described (7).

[4] = system: primary chicken embryonic fibroblasts (CEFs); experiment: Cell death by trypan blue staining in CEFs; assay type: cell-based; conditions: data not shown
Protocol: as §1, §2

chicken embryos [5] = experiment: Inhibitors counteracting thalidomide-induced limb truncations and microphthalmia in chicken embryos; assay type: in vivo; conditions: for embryos with limb truncations, thalidomide-treated plus inhibitor: Noggin 100 ng/embryo or LiCl 0.6 mg/embryo at HH stages 17-19
Protocol: (§3) Fertilized eggs were purchased from Deindl GmbH, Rietberg-Varensell. They were incubated at 38° C. in a humidified incubator, windowed after one day and staged according to Hamburger and Hamilton (HH stage). Racemic thalidomide (Celgene), thalidomide enantiomers or phthalimide (Sigma) were dissolved in DMSO at 5 mg/ml and further diluted in PBS. Embryos were exposed to drugs by dropping 15 μg-3 mg thalidomide or phthalimide per kg egg weight (about 1-200 μg per embryo) in 50 μl DMSO/PBS as a single dose at HH stages 0-13 onto the embryo. Thalidomide (50 μg) or phthalimide (50 μg) in 10 μl DMSO was injected into the extra-embryonic blood vessels of HH 19 stage embryos. LiCl (99% pure, Sigma) was dissolved in sterile PBS. LiCl (0.1, 0.6 or 3.2 mg) was applied at HH stages 17-19 by dropping 500 μl of a 5 mM, 28 mM or 151 mM LiCl solution onto the embryo. Recombinant Noggin, Dkk1 specific goat IgG (R&D Systems) or serum of non-immunized goats (Sigma) was dissolved in 0.1% BSA/0.01% Fast Green/PBS. Noggin (10 or 100 ng), Dkk1 specific goat IgG (5 or 50 ng) or serum of non-immunized goats (50 ng) was applied to a single embryo at HH stages 17-19 by injecting a 10 μl solution through the extra-embryonic membranes.
(§4) The morphology of the limbs was studied in specimens fixed in 5% trichloroacetic acid and stained for cartilage with alcian green as described (3).

[6] = system: Bmp4 and Dkk1 expression in HEFs; experiment: sqRT-PCR of Bmp4 and Dkk1 expression in HEFs; assay type: cell-based, human
Protocol: as §1
(§5) RNA isolation, semi-quantitative RT-PCRs and whole mount in situ hybridizations were performed according to standard protocols that are well known within the art. RNA was isolated using TRIZOL (Gibco BRL) followed by DNAseI digestion. First strand synthesis was carried out with the Expand RT System (Roche) according to the manufacturer's instructions. PCR amplification was carried out primers and conditions within the knowledge of a person having skill in the relevant art. Quantifications were performed using NIH Image 1.62.

[7] = system: Bmp4 and Dkk1 expression in PLBCs; experiment: sqRT-PCR of Bmp4 and Dkk1 expression in PLBCs; assay type: cell-based, chicken
Protocol: as §1, §5

[8] = system: Dkk1 and Bmp expression in limb buds; experiment: sqRT-PCR and whole mount in situ hybridization of Dkk1 and Bmp expression in limb buds; assay type: in vivo, chicken; conditions: data not shown
Protocol: as §5

chicken embryos [9] = experiment: Thalidomide-induced limb truncations and microphthalmia in chicken embryos; assay type: in vivo; conditions: applied to chicken embryos, control reagent
Protocol: as §3, with “LiCl (99% pure, Sigma) was dissolved in sterile PBS. LiCl (0.1, 0.6 or 3.2 mg) was applied at HH stages 17-19 by dropping 500 μl of a 5 mM, 28 mM or 151 mM LiCl solution onto the embryo.” left out
as §4

Wnt/β-catenin signaling = experiment: TOPflash luciferase reporter assay in CEFs; assay type: cell-based, chicken; conditions: Wnt3a-conditioned medium, 24 hours
Protocol: Plasmids with wild type (TOPflash) or mutated (FOPflash) LEF/TCF binding sites (5) upstream of a luciferase reporter gene were transiently transfected into CEFs using Lipofectamine (Invitrogen). Following transfection for 24 hours, the cells were exposed to Wnt3a-conditioned medium or to control medium (6) with or without thalidomide or recombinant human DKK1 (150 ng/ml, R&D Biosystems) for 24 hours prior to luciferase assay. Values were normalized for transfection efficiency by co-transfection with a pSV-β-galactosidase vector and for the number of living cells. Luciferase activity was measured using the Dual-Light System (Applied Biosystems).

| Molecule | effect on juglone-induced cell death in PLBCs [1] | effect on BMP4-induced PCD in PLBCs [1] | effect on thalidomide-induced cell death in PLBCs [1] | effect on thalidomide-induced cell death in HEFs [2] | effect on thalidomide-induced cell death in CEFs [4] | embryos with limb truncations, thalidomide-treated plus inhibitor (chicken embryos [5]) [%] | further results |
| --- | --- | --- | --- | --- | --- | --- | --- |
| O=C1Nc2cc(Br)ccc2/C1=C1/Nc2ccccc2/C1=N\O [Gsk3-Inhibitor IX, (2Z,3E)-6-Bromoindirubin-3-oxime] | could be inhibited | counteracted BMP4-induced PCD in a dose-dependent manner | completely abrogate | – | – | – | – |
| [Cl-].[Li+] [LiCl] | could be inhibited | counteracted BMP4-induced PCD in a dose-dependent manner | completely abrogate | block thalidomide-induced cell death | block thalidomide-induced cell death | 5 | individual limb buds with enhanced PCD (TUNEL) in thalidomide-treated embryos given inhibitor [3]: 24%; rescue of thalidomide-induced microphthalmia (chicken embryos [5]; 0.6 mg LiCl): did not rescue; embryos with thalidomide-induced microphthalmia plus LiCl (chicken embryos [5]; 3.2 mg LiCl per embryo): 9% |
| CC(C)(C)[N+]([O-])=Cc1ccccc1 [PBN, phenyl-N-t-butylnitrone] | completely reduces; also recorded: could be inhibited | no significant effect; also recorded: did not influence | completely reduces; also recorded: completely inhibited | – | – | – | effect on up-regulation of Bmp4 and Dkk1 expression in thalidomide-treated HEFs ([6]; pre-treatment with PBN): abolishes the up-regulation; effect on up-regulation of Bmp4 and Dkk1 expression in thalidomide-treated PLBCs ([7]; pre-treatment with PBN, data not shown): abolishes the up-regulation |
| O=C1NC(=O)c2ccccc21 [phthalimide] | – | – | – | – | – | – | Bmp and Dkk1 expression in limb buds [8]: not altered; potential to induce PCD in HEFs [2]: did not induce PCD; induction of PCD in PLBCs [1]: did not induce PCD; limb or eye defects (chicken embryos [9]): did not cause limb or eye defects; expression of Bmp4 and Dkk1 in HEFs ([6]; 10 μg/ml, six hours): did not influence the expression; expression of Bmp4 and Dkk1 in PLBCs ([7]; 10 μg/ml, six hours): did not influence the expression |
| recombinant DKK1: recombinant human DKK1, positive control in the TOPflash assay | – | – | – | – | – | – | effect on Wnt3a-induced TOPflash activity (Wnt/β-catenin signaling): clearly counteracted |
| B1 | could be inhibited | – | only a partial neutralization; also recorded: clearly reduced | block thalidomide-induced cell death | block thalidomide-induced cell death | 5 | – |
